Data on 1 compound can be found in paper PMC9604483, “Crystal Structure of CYP3A4 Complexed with Fluorol Identifies the Substrate Access Channel as a High-Affinity Ligand Binding Site” (International Journal of Molecular Sciences, 2022).

The term Kd denotes the free concentration of one partner at which half of the binding sites on the other are occupied at equilibrium, for simple one-to-one binding.

Data set [1] concerns the target T1, T224A CYP3A4 (Homo sapiens, UniProt P08684, T224A).
T1 construct: made in house
The data set is described as follows: Spectral (absorbance) equilibrium titrations of fluorol with CYP3A4. It counts as binding. The protocol:
(§1) Because fluorol strongly absorbs in the Soret region (Figure 3A), we conducted reverse rather than direct titrations by adding small amounts of CYP3A4 to the experimental cuvette with 3 μM fluorol solution and to a buffer-containing reference cuvette. Based on the difference absorbance spectra, two spectral phases were distinguished. During the first phase, when [CYP3A4] < 0.5 μM and [fluorol]:[CYP3A4] […], spectral perturbations were detected only in the Soret band (red spectra in Figure 3B,C). The lack of changes in the 380–390 nm region implies that the heme remained in a low-spin state. At [CYP3A4] > 0.5, a decrease in the Soret absorption was accompanied by the appearance of a 385 nm peak, indicating a low-to-high spin transition in the heme. For WT CYP3A4, the first spectral phase was more pronounced, with a ~3-fold larger decrease in the Soret band, whereas the 385 nm peak formed during the second phase was ~20% higher compared to that in the T224A mutant. The difference in the total absorbance change is better seen in Figure 3D, where titration plots for WT and T224A CYP3A4 are compared. The best fittings to the binding isotherms were obtained with a two-binding-site model.
(§2) Spectral Titrations—Equilibrium ligand binding to CYP3A4 was monitored using a Cary 300 spectrophotometer at 23 °C in 50 mM phosphate, pH 7.4, containing 0.6 mg/mL β-cyclodextrin (Santa Cruz Biotechnology, Dallas, TX, USA), using a 10 mm light path cuvette. Ten millimolar stock of fluorol (2-butyl-6-(butylamino)-1H-benzo[de]isoquinoline-1,3(2H)-dione; Exciton, Dayton, OH, USA) dissolved in methanol (ε440 nm = 14.0 mM^−1·cm^−1) was diluted with DMSO to prepare 1–3 mM working solutions. During spectral titrations, small aliquots of WT or T224A CYP3A4 were added to the experimental cuvette with a 3 μM fluorol solution (made from 1 mM stock in DMSO) and to the reference cuvette that contained buffer and the same amount of solvent. Difference absorbance spectra were recorded 5–10 min after fluorol addition, when no further spectral perturbations could be detected. The observed absorbance changes (peak-to-trough difference) were plotted vs. […] and fitted using a nonlinear regression analysis to derive dissociation constants.

Data set [2] has as its target T2, WT CYP3A4 (Homo sapiens, UniProt P08684).
T2 construct: made in house
Described as above. It counts as binding. The method, then:
as §1, §2

Data set [3] has as its target T1, T224A CYP3A4. The data set is described as follows: Stopped-flow kinetics of CYP3A4-fluorol complex formation (fluorol emission decay). The format is binding. The method, then:
(§3) During equilibrium titrations, fluorescence spectra were usually recorded 10–15 min after addition of CYP3A4, which could allow fluorol to adjust/change its initial binding position. To better understand the substrate/inhibitor effects, the kinetics of CYP3A4–fluorol complex formation were measured by monitoring decay of fluorol emission in a stopped-flow spectrophotometer. […] Fluorol binding to WT and T224A CYP3A4 was biphasic within the studied time interval (2 s). The rate constants for the fast and slow phases (kfast and kslow, respectively) determined for ligand-free and progesterone-bound CYP3A4 were virtually independent on fluorol concentration (Figure 5A–D). […] Likewise, kslow was elevated for ritonavir- and GS8-bound WT CYP3A4 but remained unchanged for the T224A mutant.
(§4) Kinetics of CYP3A4–fluorol complex formation were measured in a SX.18MV stopped-flow apparatus (Applied Photophysics, Leatherhead, UK) at 23 °C in 50 mM phosphate buffer, pH 7.4, containing 0.6 mg/mL β-cyclodextrin. WT or T224A CYP3A4 (2 μM) was mixed with 0.25–4 μM fluorol solution prepared from 1–3 mM stocks in DMSO. Equal amounts of DMSO were added to the protein solutions to avoid buffer-related changes in fluorol emission. Fluorescence changes were monitored with λex of 455 nm and a 495 nm cutoff emission filter. […] Kinetics were analyzed using the Igor Pro software (WaveMetrics, Oswego, OR, USA).

The target of data set [4] is T2, WT CYP3A4. The data set is described as above. It counts as binding. The method, then: as §3, §4
A short description of data set [5]: Fluorol solubility/aggregation monitored by emission changes. It counts as physicochemical. As to conditions: 50 mM potassium phosphate, pH 7.4; with or without 0.6 mg/mL β-cyclodextrin. The method, then: In our working solution (50 mM potassium phosphate, pH 7.4), dependence of emission intensity on fluorol concentration was linear only within the 0.1–4 μM range (Figure S1A). Addition of 0.6 mg/mL β-cyclodextrin, reported to improve solubility of fluorol, made no difference. For consistency, β-cyclodextrin was included in the assay buffers, while the working concentration of fluorol was limited to 3 μM to avoid/minimize artefacts associated with fluorol aggregation.

T2 sequence (P08684 with tags, fused parts or gaps): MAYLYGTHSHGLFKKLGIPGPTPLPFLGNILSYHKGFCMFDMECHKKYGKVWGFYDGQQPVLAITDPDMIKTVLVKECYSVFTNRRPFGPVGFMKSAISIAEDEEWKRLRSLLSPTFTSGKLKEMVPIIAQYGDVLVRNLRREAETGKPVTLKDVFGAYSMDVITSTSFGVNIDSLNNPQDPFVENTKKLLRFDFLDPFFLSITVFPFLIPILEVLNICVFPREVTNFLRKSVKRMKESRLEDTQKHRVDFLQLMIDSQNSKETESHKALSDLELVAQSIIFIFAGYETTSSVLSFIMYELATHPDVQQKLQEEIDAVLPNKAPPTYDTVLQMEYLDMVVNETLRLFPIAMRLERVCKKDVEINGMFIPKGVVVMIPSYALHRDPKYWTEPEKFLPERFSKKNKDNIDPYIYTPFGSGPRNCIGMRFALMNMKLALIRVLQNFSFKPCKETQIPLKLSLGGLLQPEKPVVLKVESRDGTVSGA
T1 sequence (P08684 with tags, fused parts or gaps T224A): as the sequence (P08684 with tags, fused parts or gaps) above, with T204A counted along it

For `CCCCNc1ccc2c3c(cccc13)C(=O)N(CCCC)C2=O` [fluorol, 2-butyl-6-(butylamino)-1H-benzo[de]isoquinoline-1,3(2H)-dione], on T224A CYP3A4 [1] (T224A vs WT, spectrophotometric Kd), the “Decrease in affinities when the hydroxyl group in Thr224 is eliminated” value is 25–37%. Also, the Kd at 3 μM on T224A CYP3A4 [1] (human, ligand-free T224A mutant CYP3A4 protein in buffer, pH 7.4, ligand-free T224A CYP3A4, read-out: Kd, spectrophotometric, low-affinity site) was 6.6 ± 0.8 µM; at WT CYP3A4 [2] (human, ligand-free WT CYP3A4 protein in buffer, pH 7.4, read-out: Kd, spectrophotometric, low-affinity site) it was 4.2 ± 0.5 µM. The “Percentage of the absorbance change due to binding of fluorol to the high-affinity site” value amounted to 14% at T224A CYP3A4 [1] (ligand-free T224A CYP3A4) and 28% on WT CYP3A4 [2] (ligand-free WT CYP3A4). Moreover, the Kd at T224A CYP3A4 [1] (ligand-free T224A CYP3A4, read-out: Kd, spectrophotometric, high-affinity site) turned out to be 0.67 ± 0.12 µM; on WT CYP3A4 [2] (ligand-free WT CYP3A4, 3 μM fluorol, 23 °C, 50 mM phosphate pH 7.4, 0.6 mg/mL β-cyclodextrin, read-out: Kd, spectrophotometric, high-affinity site), 0.5 ± 0.04 µM. In addition, on WT CYP3A4 [2] (WT and T224A CYP3A4, spectrophotometric Kd), the “Difference in affinity between the two independent fluorol binding sites” value was 8–10 fold. The “Decrease in the Soret band during first spectral phase, WT relative to T224A” value on WT CYP3A4 [2] ([CYP3A4] < 0.5 μM) is on record as ~ 3 fold. Also, the “Height of 385 nm peak formed during second phase, WT compared to T224A” value at WT CYP3A4 [2] (higher in WT) is recorded as ~ 20%. In addition, at T224A CYP3A4 [3] (ligand-free and progesterone/GS8-bound T224A CYP3A4), the “Amplitude of quenching, larger in T224A” value is given as 35–50%. Also, the “Amplitude of quenching, smaller in T224A” value on T224A CYP3A4 [3] (ritonavir-bound T224A CYP3A4) stood at 60%. For the same compound, the “Fluorol binding kinetics (phases)” value at T224A CYP3A4 [3] (within 2 s) and at WT CYP3A4 [4] (within 2 s) was “biphasic” throughout. The “Decrease in amplitude of quenching” value at WT CYP3A4 [4] (WT, in the presence of GS8, equimolar CYP3A4 and fluorol) is ~ 20%; on WT CYP3A4 [4] (WT, in the presence of ritonavir, equimolar CYP3A4 and fluorol), ~ 20%. For the same compound, the “Increase in amplitude of quenching” value on WT CYP3A4 [4] (WT, in the presence of progesterone, equimolar CYP3A4 and fluorol) is on record as ~ 40%. The “Concentration range with linear dependence of emission intensity (no aggregation)” value in data set [5] fell in the range of 100 to 4000 nM.
